Common to all, as to assay type: in vivo, human
Test [1] relates to college baseball players. In words: Macular pigment optical density (MPOD) by customized heterochromatic flicker photometry, zeaxanthin supplementation study. Particulars: for MPOD (Example 2, preliminary data): 20 mg/d supplementation ongoing. On the procedure: (§1) Subjects: Seven college baseball players (M=20.3±0.58 years), supplemented with 20 mg/Z/day for 3-months, participated in this study. The visual function parameters MPOD, disability glare, photostress recovery time, and contrast enhancement were determined. The neural efficiency parameters Fixed Reaction Time (FRT); Variable Reaction Time (VRT); and Coincidence Anticipation Timing (CAT) were determined.
• Customized HFP [3]—Macular Metrics Corp., Providence, R.I.,

For test [2], the system named is college baseball players. In words: Photostress recovery time (PR). The following applies: 20 mg/Z/day for 3-months; supplemented subjects. As for the experimental part:
as §1
(§2) Stimuli presented in three-channel Maxwellian-view optical system (1 kW xenon-arc light source).
• 570 nm target (100% contrast; 5 cpd). • 5 second exposure to bleaching photostressor (5° diameter disk; xenon-white light of log 2.5 μW/cm2 intensity). • Threshold: time to recover visibility of target.

Test [3] concerns college baseball players. In words: Glare disability (GL). The following applies: 20 mg/Z/day for 3-months. On the procedure: as §1, §2
(§3) • 570 nm target (100% contrast, 5 cycles per degree—cpd); 10° inner, 12° outer diameter annulus comprised of broad-band xenon light (see FIG. 1 a). • Threshold: intensity of annulus required to completely veil target.

The subject of test [4] is college baseball players. In words: Contrast enhancement (CE). Particulars: 20 mg/Z/day for 3-months. On the procedure: as §1, §2
(§4) • 600 nm target (100% contrast grating, 5 cpd); 460 nm surround (see FIG. 1A(b)). • Threshold: intensity of background required to obscure edge between target and surround.

Test [5] concerns college baseball players. The experiment in a line: Fixed and variable position reaction time (FRT/VRT). The following applies: 20 mg/Z/day for 3-months. On the procedure:
as §1
• Task: button press in response to LED repeatedly presented at same position (FRT) or random location (VFT) along the 120 LED linear track. • 60 trials; inter-trial intervals varied between 1000-3000 ms

In test [6] the test system is college baseball players. The experiment in a line: Coincidence anticipation timing (CAT). The following applies: 20 mg/Z/day for 3-months; at the highest frequency. On the procedure:
as §1
• Task: button press to indicate when a light bar (traveling along 120 LED linear track) reached a specified point. • Velocity randomly varied between 5, 10, 15, and 20 MPH (15 trials for each speed, randomly presented; inter-trial intervals randomly varied between 1000-3000 ms).

Test [7] concerns college baseball players. The experiment in a line: Static and dynamic visual performance after zeaxanthin supplementation (Example 2). Particulars: 20 mg/d supplementation ongoing; preliminary data.
Text: Baseball performance requires the ability to perceive and react to temporally varying stimuli under lighting conditions that are known to be most detrimental to visual function (i.e., short-wave light). Macular pigment (MP) lutein (L) and zeaxanthin (Z) in the retina—is known to improve performance under such conditions and may also improve neural efficiency. The purpose of this study was to assess static and dynamic visual performance in college baseball players in order to: • a) Define performance ability in athletes and non-athletes matched for age and MP (N=18); and, • b) Improve athletes' performance via supplementation.
as §2, §3, §4
• 570 nm target (100% contrast; 5 cpd). • 5 second exposure to bleaching photostressor (5° diameter disk; xenon-white light of log 2.5 μW/cm2 intensity). • Threshold: time to recover visibility of target. […]

Consider `CC1=C(/C=C/C(C)=C/C=C/C(C)=C/C=C/C=C(C)/C=C/C=C(C)/C=C/C2=C(C)C[C@@H](O)CC2(C)C)C(C)(C)C[C@H](O)C1` [Zeaxanthin, zeaxanthin], for which, in test [1] (20 mg/Z/day for 3-months, three subjects completed), the “MPOD in supplemented subjects” value is on record as “increased”. Besides, the “MPOD (Example 2, preliminary data)” value in test [1] is listed as “increases”. For the same compound, the “MPOD (Example 2, preliminary data)” value in test [1] (listed as zeaxanthin) is listed as “Increases”. Also, the “12-week MPOD” value in test [1] (one subject, baseline MPOD 0.7 at 30-min of eccentricity, 20 mg/d, 12 weeks) was found to be 0.77. In test [2], the Photostress recovery time entry is “decreased”. Further, the “Glare (disability glare)” value in test [3] is given as “Early improvements”. Besides, the Contrast enhancement result in test [4] is reported as “Early improvements”. Besides, in test [5], the FRT result is given as “improved” and the VRT entry is on record as “improved”. In addition, the CAT accuracy result in test [6] was “improved”. Moreover, in test [7], the Dynamic visual performance result was “improvement” and the Static visual performance entry is listed as “improvement”.

These data come from patent publication US20170367996A1, “Use Of Xanthophyll Carotenoids To Improve Visual Performance And Neural Efficiency” (University of Georgia Research Foundation, Inc., priority 2011, published 2017).
